This note sets out measurements from ChEMBL document CHEMBL5108050, “Discovery of a New Class of Uracil Derivatives as Potential Mixed Lineage Kinase Domain-like Protein (MLKL) Inhibitors” (J Med Chem, 2022).

Series [1] can be described thus: GSH reactivity in DPBS buffer assessed as conjugation half life by UPLC-MS analysis. Format: ADME. Conditions: glutathione (GSH) in DPBS buffer.
Series [2] relates to HT-29. The series can be described thus: Anti-necroptic activity in human HT-29 KO cells expressing MLKL K157A mutant assessed as inhibition of TSZ (TNFalpha, Smac mimetic and z-VAD-FMK) induced MLKL K157A mutant mediated necroptosis incubated for 24 hrs by celltiter-glo luminescent cell viability assay. Format: functional, cell-based. On the technique in general: In ATP-based viability assays light output follows the ATP content of the culture.

For series [3], the system named is HT-29. Briefly: Anti-necroptic activity in human HT-29 cells assessed as inhibition of TSZ (TNFalpha, Smac mimetic and z-VAD-FMK) induced necroptosis incubated for 24 hrs by celltiter-glo luminescent cell viability assay. Type of series: functional, cell-based. Conditions: HT-29, 24 h.
Series [4] concerns HT-29. Briefly: Anti-necroptic activity in human HT-29 KO cells expressing MLKL F148A mutant assessed as inhibition of TSZ (TNFalpha, Smac mimetic and z-VAD-FMK) induced MLKL F148A mutant mediated necroptosis incubated for 24 hrs by celltiter-glo luminescent cell viability assay. Type of series: functional, cell-based.
Series [5] deals with T1, Mixed lineage kinase domain-like protein (Homo sapiens) (UniProt Q8NB16).
T1 sequence (whole entry): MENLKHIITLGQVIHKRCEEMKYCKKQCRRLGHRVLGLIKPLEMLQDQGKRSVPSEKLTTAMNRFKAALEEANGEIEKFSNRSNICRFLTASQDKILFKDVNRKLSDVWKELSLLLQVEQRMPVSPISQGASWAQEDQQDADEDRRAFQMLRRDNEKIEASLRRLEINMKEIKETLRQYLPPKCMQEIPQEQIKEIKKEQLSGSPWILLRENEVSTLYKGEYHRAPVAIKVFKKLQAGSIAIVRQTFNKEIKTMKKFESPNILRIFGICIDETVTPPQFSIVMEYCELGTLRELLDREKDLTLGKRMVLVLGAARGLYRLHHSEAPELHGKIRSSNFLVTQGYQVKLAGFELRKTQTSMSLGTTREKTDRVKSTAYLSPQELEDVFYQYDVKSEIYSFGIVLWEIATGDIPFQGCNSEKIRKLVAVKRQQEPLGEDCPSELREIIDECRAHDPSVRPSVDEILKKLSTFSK
Briefly: Inhibition of human MLKL in human HT-29 cells assessed as inhibition of TSZ (TNFalpha, Smac mimetic and z-VAD-FMK) induced MLKL oligomerization at 200 nM and measured after 6 hrs by immunoblot assay. Type of series: cell-based. In general terms: In western blotting, separated proteins are transferred to a membrane and probed.

Series [6] is described as follows: GSH reactivity in DPBS buffer assessed as fold decrease in reaction rate by UPLC-MS analysis relative to control. Type of series: ADME.
Series [7] concerns HT-29. The series can be described thus: Anti-necroptic activity in human HT-29 cells assessed as inhibition of TSZ induced necroptosis incubated for 3 hr followed by compound washout and further induced with TSZ by celltiter-glo luminescent cell viability assay. Type of series: functional, cell-based. Conditions: HT-29, 3 h.
In series [8] the target is T2, Receptor-interacting serine/threonine-protein kinase 1 (Homo sapiens) (UniProt Q13546).
T2 sequence (whole entry): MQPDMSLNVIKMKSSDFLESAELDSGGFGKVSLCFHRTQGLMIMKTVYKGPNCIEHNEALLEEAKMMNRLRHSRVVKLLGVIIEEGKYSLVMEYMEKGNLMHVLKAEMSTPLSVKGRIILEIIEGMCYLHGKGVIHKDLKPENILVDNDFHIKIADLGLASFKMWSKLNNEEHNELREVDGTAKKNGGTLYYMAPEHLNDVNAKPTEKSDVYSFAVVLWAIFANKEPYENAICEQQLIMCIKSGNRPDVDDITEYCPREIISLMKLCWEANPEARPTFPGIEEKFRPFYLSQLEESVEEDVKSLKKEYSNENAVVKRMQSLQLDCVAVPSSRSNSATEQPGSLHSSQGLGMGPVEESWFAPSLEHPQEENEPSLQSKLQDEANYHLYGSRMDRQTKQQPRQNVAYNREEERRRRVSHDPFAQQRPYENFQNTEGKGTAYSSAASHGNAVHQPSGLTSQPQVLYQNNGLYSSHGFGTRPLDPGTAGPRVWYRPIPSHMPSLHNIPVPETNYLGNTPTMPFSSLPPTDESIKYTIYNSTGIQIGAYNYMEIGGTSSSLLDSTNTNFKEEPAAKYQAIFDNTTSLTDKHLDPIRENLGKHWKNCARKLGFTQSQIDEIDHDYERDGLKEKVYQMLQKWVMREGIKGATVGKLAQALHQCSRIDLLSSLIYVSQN
The series can be described thus: Inhibition of RIP1 (1 to 375 residues) (unknown origin) assessed as substrate phosphorylation using MBP and ATP as substrate at 10 uM preincubated for 15 mins followed by substrate addition and measured after 90 mins by ADP-Glo luminescence assay; values are per cent of control. Conditions: time 105.0 min. (In ADP-Glo the light output rises with the ADP produced.)

Series [9] has as its target T1, Mixed lineage kinase domain-like protein (Homo sapiens). The series can be described thus: Inhibition of human MLKL in human HT-29 cells assessed as inhibition of TSZ (TNFalpha, Smac mimetic and z-VAD-FMK) induced MLKL oligomerization at 1 uM and measured after 6 hrs by immunoblot assay. Type of series: cell-based.
The target is the same in series [10]. Briefly: Covalent binding affinity to human recombinant MLKL at Cys86 residue assessed as covalent additive product formation by LC-MS/MS analysis.
Series [11] deals with Receptor-interacting serine/threonine-protein kinase 3 (Homo sapiens) (UniProt Q9Y572). Briefly: Inhibition of full length RIP3 (unknown origin) assessed as substrate phosphorylation using MBP and ATP as substrate at 1 uM preincubated for 15 mins followed by substrate addition and measured after 90 mins by ADP-Glo luminescence assay; values are per cent of control. Conditions: time 105.0 min.

The subject of series [12] is HT-29. Briefly: Anti-necroptic activity in human HT-29 cells assessed as inhibition of TSZ induced necroptosis incubated for 3 hrs followed by TSZ stimulation by celltiter-glo luminescent cell viability assay. Conditions: HT-29, 3 h. Format: functional, cell-based.
Series [13] concerns the target T1, Mixed lineage kinase domain-like protein (Homo sapiens). Briefly: Displacement of biotin-tagged TCI3136 binding from human recombinant MLKL at Cys86 residues in human HT-29 cell lysate assessed as biotin labeled ligand-protein complex pull down at 5 uM preincubated with compound for 1 hr followed by probe addition for 1 hrs and further incubated with biotinylation of probe by click chemistry reaction for 2 hrs by pull-down assay. Format: subcellular. Conditions: time 4.0 hrs.

In series [14] the target is Receptor-interacting serine/threonine-protein kinase 3 (Homo sapiens) (UniProt Q9Y572). Briefly: Inhibition of full length RIP3 (unknown origin) assessed as substrate phosphorylation using MBP and ATP as substrate at 10 uM preincubated for 15 mins followed by substrate addition and measured after 90 mins by ADP-Glo luminescence assay; values are per cent of control. Conditions: time 105.0 min.

For series [15], the system named is HT-29. The series can be described thus: Anti-necroptic activity in human HT-29 cells assessed as inhibition of TSZ induced necroptosis incubated for 5 min followed by compound washout and further induced with TSZ by celltiter-glo luminescent cell viability assay. Conditions: HT-29, 5 min. Format: functional, cell-based.
For series [16], the system named is HT-29. The series can be described thus: Anti-necroptic activity in human HT-29 cells assessed as inhibition of TSZ induced necroptosis incubated for 1 hr followed by compound washout and further induced with TSZ by celltiter-glo luminescent cell viability assay. Conditions: HT-29, 1 h. Format: functional, cell-based.
The target in series [17] is T1, Mixed lineage kinase domain-like protein (Homo sapiens). The series can be described thus: Inhibition of human MLKL in human HT-29 cells assessed as inhibition of TSZ (TNFalpha, Smac mimetic and z-VAD-FMK) induced MLKL translocation to cell membrane at 1 uM and measured after 8 hrs by western blot analysis. Format: cell-based.
Series [18] shares this target. Briefly: Inhibition of FLAG-tagged human MLKL in human HT-29 cells assessed as inhibition of TSZ (TNFalpha, Smac mimetic and z-VAD-FMK) induced MLKL phosphorylation by measuring dispersed phosphorylated MLKL in cytoplasm at 1 uM and measured after 8 hrs by Hoechst 33342 staining based immunofluorescence analysis. Type of series: cell-based.
For series [19], the target named is T2, Receptor-interacting serine/threonine-protein kinase 1 (Homo sapiens). The series can be described thus: Inhibition of RIP1 (1 to 375 residues) (unknown origin) assessed as substrate phosphorylation using MBP and ATP as substrate at 1 uM preincubated for 15 mins followed by substrate addition and measured after 90 mins by ADP-Glo luminescence assay; values are per cent of control. Conditions: time 105.0 min.

The source made the active and inactive calls.

Chain of Receptor-interacting serine/threonine-protein kinase 3 (Homo sapiens) (Q9Y572 whole entry, looked up): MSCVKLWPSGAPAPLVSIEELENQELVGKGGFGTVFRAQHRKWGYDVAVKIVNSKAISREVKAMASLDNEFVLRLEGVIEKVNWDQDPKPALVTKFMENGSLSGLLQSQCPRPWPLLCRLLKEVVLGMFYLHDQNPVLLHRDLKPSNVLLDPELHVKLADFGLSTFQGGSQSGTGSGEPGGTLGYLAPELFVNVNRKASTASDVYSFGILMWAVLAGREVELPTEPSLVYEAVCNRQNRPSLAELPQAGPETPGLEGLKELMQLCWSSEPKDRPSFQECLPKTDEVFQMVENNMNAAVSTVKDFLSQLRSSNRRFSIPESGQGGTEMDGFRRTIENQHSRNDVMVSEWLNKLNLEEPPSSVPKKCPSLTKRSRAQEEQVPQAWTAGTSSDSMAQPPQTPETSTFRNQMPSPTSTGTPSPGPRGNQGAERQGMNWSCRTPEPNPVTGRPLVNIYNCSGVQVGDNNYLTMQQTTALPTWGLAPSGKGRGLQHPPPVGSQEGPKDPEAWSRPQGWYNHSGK

In the case of `Cn1c(=O)c2c(nc(S(C)(=O)=O)n2C)n(CC#Cc2cccc(O)c2)c1=O`, the half-life (usually the time needed for the level to fall by half in the phase considered) in series [1] was found to be 20 min. Moreover, the inhibition result (in the series with HT-29 [2]; in the series on HT-29 [4]; in series [5]) was “Active” in each case. Also, the EC50 (commonly the midpoint of the concentration-response curve) with HT-29 [3] was 2 nM.

In the case of `Cc1ccc(CCC(=O)Nc2c(Cl)n(CC#Cc3ccc(O)c(Cn4ccccc4=O)c3)c(=O)n(C)c2=O)cc1`, the “fold change (FC)” value in series [6] is on record as 150. The concentration giving a half-maximal response (EC50) is 180 nM in the series on HT-29 [7]; 188 nM with HT-29 [12]; above 10000 nM in the series with HT-29 [15]; 82 nM in the series with HT-29 [3]; 584 nM with HT-29 [16]. Moreover, the residual activity (as a rule, the signal under treatment as a percentage of the control signal) in series [8] came out at 82.6%; in series [11], 100%; in series [14] it was 99.8%. The inhibition entry (in [9]; in the series on HT-29 [2]; in series [17]) was “Active” in each case. Also, the result in series [10] and in [13] was Active.

For the compound `COc1cccn(Cc2cc(C#CCn3c(Cl)c(NC(=O)CCc4ccc(C)cc4)c(=O)n(C)c3=O)ccc2O)c1=O`, the “fold change (FC)” value in series [6] is on record as 150. Besides, the residual activity in series [8] amounted to 101%; in series [11], 110%; in series [14] it was 110%; in series [19], 117%. For the same compound, the inhibition entry (in series [9]; in the series on HT-29 [2]; in series [18]; in series [17]) was “Active” each time. Also, the result in series [13] was Active. Besides, the EC50 with HT-29 [3] came to 31 nM.
